Experimental findings from US12649751B2 (Arcus Biosciences, Inc., priority 2022, dated 2026) are described below.

Where two headings read alike, the source gives them in different places.

Test [1] deals with p-SLP-76 (Ser376) in Jurkat cells. Nature of the test: pSLP76 Cellular Assay (AlphaLISA SureFire Ultra p-SLP-76 (Ser376), anti-CD3 activated Jurkat cells). In kind it is cell-based. Particulars: Homo sapiens; pSLP76 (Ser376) AlphaLISA, anti-CD3 activated Jurkat cells; read-out: Cellular Potency. The essentials: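 Jurkat cells, serum-starved overnight in Opti-MEM then in HBSS, preincubated 1 h at 37 °C with 22-point 2-fold compound dilutions, then stimulated with anti-CD3 (0.025 mg/ml added solution) for 45 min. Lysate p-SLP-76 (Ser376) measured by AlphaLISA at 570 nm; IC50 from 4-parameter logistic fit.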

Another test concerns the target HPK1 (Homo sapiens, UniProt Q92918). The test is described as follows: HPK1 Biochemical Assay (ADP-Glo luminescence; low ATP 10 μM or high ATP 200 μM). Particulars: HPK1 ADP-Glo assay. For orientation: ADP-Glo first removes unused ATP, then detects ADP through luciferase.
The mark [2] stands for this setting: high ATP (200 μM ATP, 5 nM HPK1), read-out: Biochemical Potency (high ATP).
[3] abbreviates: low ATP (10 μM ATP, 2 nM HPK1), read-out: Biochemical Potency (low ATP).

HPK1, sequence (Q92918 whole entry, species assumed): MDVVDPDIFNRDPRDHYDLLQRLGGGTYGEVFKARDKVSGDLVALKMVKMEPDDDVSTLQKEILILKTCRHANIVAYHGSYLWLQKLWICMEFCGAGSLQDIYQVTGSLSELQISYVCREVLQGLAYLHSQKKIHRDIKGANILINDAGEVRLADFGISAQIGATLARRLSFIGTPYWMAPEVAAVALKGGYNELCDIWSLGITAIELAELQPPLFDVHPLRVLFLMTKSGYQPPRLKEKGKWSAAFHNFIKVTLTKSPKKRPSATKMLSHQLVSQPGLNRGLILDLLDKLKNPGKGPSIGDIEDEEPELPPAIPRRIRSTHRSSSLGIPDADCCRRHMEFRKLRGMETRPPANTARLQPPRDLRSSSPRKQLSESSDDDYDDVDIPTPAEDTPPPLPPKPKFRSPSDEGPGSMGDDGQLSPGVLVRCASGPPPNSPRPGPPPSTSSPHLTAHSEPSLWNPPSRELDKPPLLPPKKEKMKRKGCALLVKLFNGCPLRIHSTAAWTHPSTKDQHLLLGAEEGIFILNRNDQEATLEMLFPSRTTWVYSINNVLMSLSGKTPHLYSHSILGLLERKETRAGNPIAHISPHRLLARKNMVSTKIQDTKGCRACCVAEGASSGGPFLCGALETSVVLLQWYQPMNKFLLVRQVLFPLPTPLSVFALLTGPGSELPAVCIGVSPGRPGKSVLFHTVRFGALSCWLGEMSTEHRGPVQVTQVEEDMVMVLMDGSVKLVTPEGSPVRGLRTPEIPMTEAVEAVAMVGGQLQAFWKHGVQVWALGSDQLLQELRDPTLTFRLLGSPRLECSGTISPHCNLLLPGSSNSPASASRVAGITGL

Take `Cc1cccnc1-c1nc2cc(Nc3cc(C(C)(C)O)nc(N4C[C@@H]5C[C@H]4CN5C)n3)ncc2s1` [Example 304, 2-{2-[(1S,4S)-5-methyl-2,5-diazabicyclo[2.2.1]heptan-2-yl]-6-{[2-(3-methylpyridin-2-yl)-[1,3]thiazolo[5,4-c]pyridin-6-yl]amino}pyrimidin-4-yl}propan-2-ol]: the figures for the IC50 (in test [1]; at HPK1 (setting [2])) were 100 to 1000 nM and under 100 nM, respectively.

With `CCN1C[C@@H]2C[C@H]1CN2c1nc(C)cc(Nc2cc3nc(-c4cccc(C(=O)N5CC[C@@H](C)C5)c4)sc3cn2)n1` [Example 305, [(R)-3-methyl-1-pyrrolidinyl]{m-[6-(2-{(1S,4S)-5-ethyl-2,5-diazabicyclo[2.2.1]hept-2-yl}-6-methyl-4-pyrimidinylamino)-3-thia-1,5-diaza-2-indenyl]phenyl}methanone], the IC50 (in test [1]; at HPK1 (setting [2])) was under 100 nM in each case.

`Cc1cc(Nc2cc3nc(-c4ccnc(C(O)C5CC5)c4)sc3cn2)nc(N2C[C@@H]3C[C@H]2CN3CCO)n1` (stereo partly drawn) [Example 307, 2-[(1S,4S)-5-(4-{2-[2-(cyclopropylhydroxymethyl)-4-pyridyl]-3-thia-1,5-diaza-6-indenylamino}-6-methyl-2-pyrimidinyl)-2,5-diazabicyclo[2.2.1]hept-2-yl]ethanol]: the IC50 (in test [1]; at HPK1 (setting [2])) was under 100 nM in each case.

Consider `Cc1cc(Nc2cc3nc(-c4ccnc(CC5CC5)c4)sc3cn2)nc(N2C[C@@H]3C[C@H]2CN3CCO)n1` [Example 308, 2-[(1S,4S)-5-(4-{2-[2-(cyclopropylmethyl)-4-pyridyl]-3-thia-1,5-diaza-6-indenylamino}-6-methyl-2-pyrimidinyl)-2,5-diazabicyclo[2.2.1]hept-2-yl]ethanol], for which the IC50 (in test [1]; on HPK1 (setting [2])) was under 100 nM throughout.

`Cc1cc(Nc2cc3nc(-c4cnn(C)c4C(C)(C)O)sc3cn2)nc(N2C[C@@H]3C[C@H]2CN3C)n1` [Example 309, 2-{4-[6-(2-{(1S,4S)-5-methyl-2,5-diazabicyclo[2.2.1]hept-2-yl}-6-methyl-4-pyrimidinylamino)-3-thia-1,5-diaza-2-indenyl]-1-methyl-5-pyrazolyl}-2-propanol]: the IC50 (in test [1]; at HPK1 (setting [2])) was under 100 nM each time.

Turning to `CCN1C[C@@H]2C[C@H]1CN2c1nc(C)cc(Nc2cc3nc(-c4cccc(CN5CCOC5=O)c4)sc3cn2)n1` [Example 310, (2-{(1S,4S)-5-ethyl-2,5-diazabicyclo[2.2.1]hept-2-yl}-6-methyl-4-pyrimidinyl)(2-{m-[(2-oxo-1,3-oxazolidin-3-yl)methyl]phenyl}-3-thia-1,5-diaza-6-indenyl)amine], the IC50 in test [1] was 100 to 1000 nM; on HPK1 (setting [2]) it was under 100 nM.

For the compound `CCN1C[C@@H]2C[C@H]1CN2c1nc(C)cc(Nc2cc3nc(-c4cccc(C(=O)N(C)C5CCN(S(C)(=O)=O)CC5)c4)sc3cn2)n1` [Example 311, N-(1-mesyl-4-piperidyl)-N-methylm-[6-(2-{(1S,4S)-5-ethyl-2,5-diazabicyclo[2.2.1]hept-2-yl}-6-methyl-4-pyrimidinylamino)-3-thia-1,5-diaza-2-indenyl]benzamide], the IC50 in test [1] is 100 to 1000 nM; at HPK1 (setting [2]) it was under 100 nM.

Consider `Cc1cc(Nc2cc3nc(-c4cccc5c4CCCN5S(C)(=O)=O)sc3cn2)nc(N2C[C@@H]3C[C@H]2CN3C)n1` [Example 312, N-[2-(1-methanesulfonyl-1,2,3,4-tetrahydroquinolin-5-yl)-[1,3]thiazolo[5,4-c]pyridin-6-yl]-6-methyl-2-[(1S,4S)-5-methyl-2,5-diazabicyclo[2.2.1]heptan-2-yl]pyrimidin-4-amine], for which the values for the IC50 (in test [1]; on HPK1 (setting [2])) were 1000 to 5000 nM and 100 to 1000 nM, respectively.

Regarding `Cc1cc(Nc2cc3nc(-c4cccc5c4CCCN5)sc3cn2)nc(N2C[C@@H]3C[C@H]2CN3C)n1` [Example 313, 6-methyl-2-[(1S,4S)-5-methyl-2,5-diazabicyclo[2.2.1]heptan-2-yl]-N-[2-(1,2,3,4-tetrahydroquinolin-5-yl)-[1,3]thiazolo[5,4-c]pyridin-6-yl]pyrimidin-4-amine], the IC50 (in test [1]; at HPK1 (setting [2])) was under 100 nM in each case.

Consider `Cc1cccnc1-c1nc2cc(Nc3cccc(C4(F)CC5CC4CN5)n3)ncc2s1` (stereo not shown) [Example 315, {6-(5-fluoro-2-azabicyclo[2.2.1]hept-5-yl)-2-pyridyl}[2-(3-methyl-2-pyridyl)-3-thia-1,5-diaza-6-indenyl]amine], for which the IC50 in test [1] was 1000 to 5000 nM; at HPK1 (setting [2]), under 100 nM; on HPK1 (setting [3]) it was under 100 nM.

For the compound `Cc1cccnc1-c1nc2cc(Nc3ccc4c(n3)[C@](C)(N)CCC4)ncc2s1` [Example 316, (8R)-8-methyl-N2-[2-(3-methylpyridin-2-yl)-[1,3]thiazolo[5,4-c]pyridin-6-yl]-5,6,7,8-tetrahydroquinoline-2,8-diamine], the IC50 (in test [1]; on HPK1 (setting [3])) was 1000 to 5000 nM each time.

For the compound `Cc1cccnc1-c1nc2cc(Nc3ccc4c(n3)[C@H](N)CCC4)ncc2s1` [Example 317, (8R)-N2-[2-(3-methylpyridin-2-yl)-[1,3]thiazolo[5,4-c]pyridin-6-yl]-5,6,7,8-tetrahydroquinoline-2,8-diamine], the IC50 in test [1] is 1000 to 5000 nM; at HPK1 (setting [3]) it was under 100 nM.

For the compound `Cc1cc(Nc2cc3nc(-c4cncc(-c5ncccc5C)c4)sc3cn2)nc(N2C[C@@H]3C[C@H]2CN3CCO)n1` [Example 318, 2-[(1S,4S)-5-{6-methyl-4-[2-(3-methyl-2,3′-bipyridyl-5′-yl)-3-thia-1,5-diaza-6-indenylamino]-2-pyrimidinyl}-2,5-diazabicyclo[2.2.1]hept-2-yl]ethanol], the IC50 (in test [1]; on HPK1 (setting [2])) was under 100 nM in each case.

As to `Cc1cccnc1-c1nc2cc(Nc3nc(N4C[C@@H]5C[C@H]4CN5)ccc3F)ncc2s1` [Example 320], the figures for the IC50 (in test [1]; at HPK1 (setting [2]); at HPK1 (setting [3])) were 100 to 1000 nM, under 100 nM and under 100 nM, respectively.

As for `CCN1C[C@@H]2C[C@H]1CN2c1nc(Nc2cc3nc(-c4cccc(C(=O)N5CCC(F)CC5)c4)sc3cn2)ccc1C` [Example 321], the IC50 is 100 to 1000 nM in test [1] and under 100 nM at HPK1 (setting [2]).

For the compound `CCN1C[C@@H]2C[C@H]1CN2c1nc(Nc2cc3nc(-c4cnn(C)c4)sc3cn2)ccc1F` [Example 322], the IC50 in test [1] is 100 to 1000 nM; on HPK1 (setting [2]), under 100 nM.

For the compound `Cc1cccnc1-c1nc2cc(Nc3cc(C(F)(F)F)cc(N4C[C@@H]5C[C@H]4CN5C)n3)ncc2s1` [Example 323], the results for the IC50 (in test [1]; at HPK1 (setting [2]); at HPK1 (setting [3])) were 100 to 1000 nM, under 100 nM and under 100 nM, respectively.

As for `Cc1cccnc1-c1nc2cc(Nc3ccc4c(n3)CN(C)CC4)ncc2s1` [Example 327], the IC50 was 100 to 1000 nM in test [1] and under 100 nM on HPK1 (setting [3]).

In the case of `CN1CCc2ccc(Nc3cc4nc(-c5c(F)cccc5F)sc4cn3)cc2CC1` [Example 328], the results for the IC50 (in test [1]; on HPK1 (setting [3])) were 5000 to 25000 nM and 100 to 1000 nM, respectively.

In the case of `Fc1cccc(F)c1-c1nc2cc(Nc3ccc4c(c3)CC[C@@H](N3C5COCC3C5)CC4)ncc2s1` [Example 329], the IC50 was 5000 to 25000 nM in test [1] and 100 to 1000 nM on HPK1 (setting [3]).

As for `Cc1c(N)cncc1-c1nc2cc(Nc3ccc4c(c3)CCC(N3CCCC3)CC4)ncc2s1` (stereo not shown) [Example 330], the IC50 in test [1] was 5000 to 25000 nM; at HPK1 (setting [3]), under 100 nM.

`Cc1cc(Nc2cc3nc(-c4cccc(C(=O)N(C)C)c4)sc3cn2)nc(N2C[C@@H]3C[C@H]2CN3C2CCN(S(C)(=O)=O)CC2)n1` [Example 331]: the IC50 in test [1] was in the range of 1000 to 5000 nM; on HPK1 (setting [2]) it was 100 to 1000 nM.

For `CC(=O)N1CCC(N2C[C@@H]3C[C@H]2CN3c2nc(C)cc(Nc3cc4nc(-c5cccc(C(=O)N(C)C)c5)sc4cn3)n2)CC1` [Example 332], the figures for the IC50 (in test [1]; at HPK1 (setting [2])) were 1000 to 5000 nM and under 100 nM, respectively.

Consider `CN1C[C@@H]2C[C@H]1CN2c1cc(Cl)cc(Nc2cc3nc(-c4ccnc(C(C)(C)O)c4)sc3cn2)n1` [Example 333], for which the IC50 in test [1] is 100 to 1000 nM; on HPK1 (setting [2]) it was under 100 nM.

With `Cc1cccnc1-c1nc2cc(Nc3cc(F)cc(N4C[C@@H]5C[C@H]4CN5)n3)ncc2s1` [Example 334], the IC50 (in test [1]; at HPK1 (setting [3])) was under 100 nM each time.

For `CCN1C[C@@H]2C[C@H]1CN2c1nc(C)cc(Nc2cc3nc(-c4cnn(Cc5ccccc5)c4)sc3cn2)n1` [Example 336], the figures for the IC50 (in test [1]; on HPK1 (setting [2])) were 100 to 1000 nM and under 100 nM, respectively.

Take `CCN1C[C@@H]2C[C@H]1CN2c1nc(Nc2cc3nc(-c4ccnc(C(C)(C)O)c4)sc3cn2)cc(C)c1F` [Example 337]: the IC50 in test [1] was 100 to 1000 nM; on HPK1 (setting [2]), under 100 nM.

In the case of `CCN1C[C@@H]2C[C@H]1CN2c1nc(C)cc(Nc2cc3nc(-c4cccc(N5CCC(F)CC5)c4)sc3cn2)n1` [Example 338], the values for the IC50 (in test [1]; at HPK1 (setting [2])) were 1000 to 5000 nM and under 100 nM, respectively.

For the compound `CCN1C[C@@H]2C[C@H]1CN2c1nc(C)cc(Nc2cc3nc(-c4cccc(S(=O)(=O)CC(C)C)c4)sc3cn2)n1` [Example 339], the IC50 was 100 to 1000 nM in test [1] and under 100 nM at HPK1 (setting [2]).

As to `CCN1C[C@@H]2C[C@H]1CN2c1nc(C)cc(Nc2cc3nc(-c4cccc(S(=O)(=O)C5CC5)c4)sc3cn2)n1` [Example 340], the IC50 (in test [1]; at HPK1 (setting [2])) was under 100 nM each time.

With `CCN1C[C@@H]2C[C@H]1CN2c1nc(C)cc(Nc2cc3nc(-c4cccc(S(=O)(=O)N5CCCC5)c4)sc3cn2)n1` [Example 341], the IC50 in test [1] is 100 to 1000 nM; on HPK1 (setting [2]), under 100 nM.

As to `CCN(CC)C(=O)c1cccc(-c2nc3cc(Nc4cc(C)nc(N5C[C@@H]6C[C@H]5CN6CC)n4)ncc3s2)c1` [Example 342], the values for the IC50 (in test [1]; on HPK1 (setting [2])) were 100 to 1000 nM and under 100 nM, respectively.
